Test results: paper PMC5464344, “Analgesic and anti‐inflammatory properties of novel, selective, and potent EP4 receptor antagonists” (Pharmacology Research & Perspectives, 2017)
“And” between values parts separate entries of the source, which are not always exact repeats. Equal entries are not always repeated.

How the values were obtained:
[1] = system: male Lewis rats, adjuvant induced arthritis; experiment: AIA model of inflammation (paw swelling); type: in vivo; settings: rat AIA; 10 mg/kg oral once daily 4 days; P < 0.05 by Dunnett's test
Description: (§1) For the monoiodoacetate (MIA) and adjuvant induced arthritis (AIA) studies, male Lewis rats (Envigo, Indianapolis, IN) of approximately 8 weeks of age at the time of disease induction were used. For collagen induced arthritis studies (CIA) female Lewis rats (Charles River) weighing 150–170 g were used. Rats were housed in groups of 2 or 3 per cage and maintained in a constant temperature, and on a 12 h light/12 h dark cycle. Animals had free access to food and water at all times except during data collection.
On Day 0, paw widths of both right and left paws were measured between the lateral and dorsal surfaces using calipers, and a mean paw thickness for each rat was calculated by averaging these measurements. Rats were then inoculated intradermally with 0.25 mg of adjuvant (M. Tuberculosis H37 RA from Difco) in 100 μL of mineral oil at the base of the tail to induce adjuvant disease. Eleven days post inoculation paw widths of both right and left paws were measured again, and the percent change from the Day 0 reading was calculated. […] On the fifth day after dosing started (day 15 post adjuvant injection) the rats were euthanized without further dosing and paw width measured again. The percent increase in mean paw thickness from day 11 to day 15 was then calculated as a measure of paw swelling which is indicative of the amount of inflammation in the paws measured. […]

[2] = target: T1, Human EP4 (Homo sapiens, UniProt P35408); experiment: PGE2 stimulated cAMP production by HEK293/EP4 cell line; type: cell-based
T1 sequence (P35408 whole entry): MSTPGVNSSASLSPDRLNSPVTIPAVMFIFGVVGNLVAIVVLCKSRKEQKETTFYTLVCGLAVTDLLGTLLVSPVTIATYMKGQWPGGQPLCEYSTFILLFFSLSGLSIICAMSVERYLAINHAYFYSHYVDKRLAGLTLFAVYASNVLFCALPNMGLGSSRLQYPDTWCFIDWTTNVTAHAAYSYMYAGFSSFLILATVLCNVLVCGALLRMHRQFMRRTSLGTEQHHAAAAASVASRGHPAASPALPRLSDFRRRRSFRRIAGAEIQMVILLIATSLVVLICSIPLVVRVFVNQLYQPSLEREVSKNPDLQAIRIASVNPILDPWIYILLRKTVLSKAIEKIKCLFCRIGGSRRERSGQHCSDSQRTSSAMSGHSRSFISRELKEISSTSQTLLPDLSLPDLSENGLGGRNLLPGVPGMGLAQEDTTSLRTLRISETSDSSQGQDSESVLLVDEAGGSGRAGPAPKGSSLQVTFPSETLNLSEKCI
Description: (§2) Human EP4 (GenBank Accession # AY429109, Clone ID PER0400000, UMR cDNA Resource Center, Rolla, MO) was stably expressed in HEK293 cells. Rat EP4 cDNA (GenBank Accession# NM_03276) was cloned into pcDNA 3.1 vector and stably transfected into HEK293 cells. The cell lines were maintained in DMEM (invitrogen) supplemented with 10% fetal bovine serum (FBS), 1 mmol/L sodium pyruvate, 10 mmol/L HEPES, 500 μg/mL geneticin and 2 mmol/L L‐glutamine. Confluent cultures were grown at 37°C in an atmosphere containing 5% CO2. […] Immediately prior to the assay, cells were thawed with DMEM and suspended in cAMP assay buffer (HBSS with 0.1% BSA, 20 mmol/L HEPES and 200 μmol/L IBMX).
(§3) To measure the cAMP levels, cAMP‐d2 conjugate and anti cAMP‐cryptate conjugate in lysis buffer were incubated with the treated cells at room temperature for 1 h. […] The raw data were converted to cAMP (nmol/L) using a cAMP standard curve generated for each experiment. Data were analyzed using a 4‐parameter nonlinear logistic equation. Results are expressed as the geometric mean ± standard deviation or geometric mean ± standard error as noted.

[3] = target: T2, human EP1 receptor (Homo sapiens, UniProt P34995); experiment: [3H]-PGE2 receptor binding assay, EP1 membranes
T2 construct: membrane preparation
T2 sequence (P34995 1-402): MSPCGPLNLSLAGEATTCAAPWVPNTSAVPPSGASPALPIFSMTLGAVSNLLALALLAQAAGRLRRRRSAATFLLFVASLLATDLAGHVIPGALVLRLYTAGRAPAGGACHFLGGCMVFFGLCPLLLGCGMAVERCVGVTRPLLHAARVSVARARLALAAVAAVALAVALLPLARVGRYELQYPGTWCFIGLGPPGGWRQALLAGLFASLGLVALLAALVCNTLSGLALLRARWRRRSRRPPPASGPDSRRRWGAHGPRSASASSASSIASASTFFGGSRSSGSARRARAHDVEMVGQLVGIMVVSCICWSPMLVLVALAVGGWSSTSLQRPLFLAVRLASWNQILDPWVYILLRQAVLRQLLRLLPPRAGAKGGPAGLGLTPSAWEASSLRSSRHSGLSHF
Description: (§4) Receptor binding assays were done using membrane preparations of HEK 293 cells transfected with various prostanoid receptors using previously published procedure (Nakao et al. 2007). EP1 and EP4 membranes were prepared from recombinant HEK293 cells stably expressing human EPl receptor (GenBank Accession # AY275470, Clone ID PER0100000, UMR cDNA Resource Center, Rolla, MO) or human EP4 receptor. EP2 and EP3 membranes were prepared from HEK293 cells transiently transfected with human EP2 receptor (GenBank Accession # AY275471, Clone ID PER0200000, UMR cDNA Resource Center, Rolla, MO) or human EP3 receptor (GenBank Accession # AY429108, Clone ID PER3VI0000, UMR cDNA Resource Center, Rolla, MO) plasmids. Frozen cell pellets were homogenized in homogenization buffer (10 mmol/L Tris‐HCl, pH7.4, 250 mmol/L sucrose, 1 mmol/L EDTA, 0.3 mmol/L indomethacin and protease inhibitor cocktail with EDTA (Roche Molecular Biochemicals, catalog # 1691498)) using a Teflon/glass homogenizer. After a low speed centrifugation (200g for 15 min at 4°C) the supernatant was subjected to high speed centrifugation (30,000g for 60 min at 4°C). Membrane protein preparation was aliquoted and quick frozen on dry ice prior to storage at −80°C. […] Compounds were tested in a 96‐well format using a three‐fold dilution series to generate 10‐point curves. […] The binding reaction was performed in 200 μL MES buffer (10 mmol/L MES, pH 6.0, 10 mmol/L MgCl2, and l mmol/L EDTA) using polystyrene 96‐well plates. […] The membranes were harvested by filtration (TomTek harvester), washed four times with cold buffer (10 mmol/L MES, pH 6.0, 10 mmol/L MgCl2), dried in a 60°C oven, and the radioactivity was quantified as counts per min (CPM) using a TopCount detector. […] Data were analyzed using a 4‐parameter nonlinear logistic equation. K i Conversion from IC50 Values (K i = […] where [L] is the ligand concentration). Results are expressed as the geometric mean ± standard deviation or geometric mean ± standard error as noted.

[4] = system: female Lewis rats, collagen induced arthritis; experiment: Type-II CIA model of inflammation and autoimmunity; type: in vivo; settings: rat CIA
Description: as §1
On day 1 of the study ankle widths are measured across the joint (left side to right side) at the thickest point with calipers and rats immunized intradermally near the base of the tail with 0.4 mL of 1 mg/mL type II collagen (Elastin Products) emulsified with incomplete Freund's adjuvant (Sigma Aldrich). A second booster injection booster of 0.4 mL of the collagen emulsion was given on day 8 of the study. Ankle widths were measured on day 8 before the collagen injection and every 2–3 days thereafter until study end. On day 11 rats were randomized into five groups of eight animals based on inflammation (redness and/or swelling) in their hind paws and body weight. Rats were then dosed with vehicle (10% Acacia plus 0.05% antifoam) and compound 3 at doses of 3, 10, and 30 mg/kg. Prednisolone was included at a dose of 10 mg/kg as a positive control. Dosing was by oral gavage once daily for seventeen days at a dose volume of 5 mL/kg. On day 28 rats were euthanized and hind paws and knee joints collected for histology. Ankles and knees were fixed in neutral buffered formalin, decalcified, embedded in paraffin, and sectioned according to standard histological methodology and the joints were then scored by a pathologist using published scoring criteria (Bendele 2001; Levine et al. 2014).

[5] = target: T3, Rat EP4 (Rattus norvegicus, UniProt P43114); experiment: EP4 cAMP antagonist assay (HTRF), rat EP4; type: cell-based; settings: read-out: cAMP Antagonism Rat EP4 IC50
T3 construct: expressed in transfected cells
T3 sequence (P43114 whole entry): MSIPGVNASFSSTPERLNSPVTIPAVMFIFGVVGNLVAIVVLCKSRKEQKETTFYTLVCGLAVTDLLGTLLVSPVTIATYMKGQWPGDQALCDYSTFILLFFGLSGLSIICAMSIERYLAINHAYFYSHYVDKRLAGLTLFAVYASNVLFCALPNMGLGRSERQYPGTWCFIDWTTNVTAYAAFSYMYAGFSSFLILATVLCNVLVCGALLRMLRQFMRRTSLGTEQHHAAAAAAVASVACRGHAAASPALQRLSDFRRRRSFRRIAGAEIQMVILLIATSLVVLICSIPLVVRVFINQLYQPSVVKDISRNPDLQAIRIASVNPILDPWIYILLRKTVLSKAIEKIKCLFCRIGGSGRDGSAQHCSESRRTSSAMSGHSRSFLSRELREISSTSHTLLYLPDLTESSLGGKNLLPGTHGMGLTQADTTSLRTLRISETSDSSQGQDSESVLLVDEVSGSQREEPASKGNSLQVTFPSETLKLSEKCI
Description: Human EP4 (GenBank Accession # AY429109, Clone ID PER0400000, UMR cDNA Resource Center, Rolla, MO) was stably expressed in HEK293 cells. Rat EP4 cDNA (GenBank Accession# NM_03276) was cloned into pcDNA 3.1 vector and stably transfected into HEK293 cells. The cell lines were maintained in DMEM (invitrogen) supplemented with 10% fetal bovine serum (FBS), 1 mmol/L sodium pyruvate, 10 mmol/L HEPES, 500 μg/mL geneticin and 2 mmol/L L‐glutamine. Confluent cultures were grown at 37°C in an atmosphere containing 5% CO2. Cells were harvested using 0.25% Trypsin‐ EDTA, suspended in freeze media at a density of 10^7cel1s/mL, and aliquots were stored in liquid nitrogen. Immediately prior to the assay, cells were thawed with DMEM and suspended in cAMP assay buffer (HBSS with 0.1% BSA, 20 mmol/L HEPES and 200 μmol/L IBMX).
CJ‐023,423 served as the positive control. To measure the cAMP levels, cAMP‐d2 conjugate and anti cAMP‐cryptate conjugate in lysis buffer were incubated with the treated cells at room temperature for 1 h. The HTRF signal was detected using an EnVision plate reader (Perkin‐Elmer, Inc., Waltham, MA, USA.) to calculate the ratio of fluorescence at 665 to 620 nm. The raw data were converted to cAMP (nmol/L) using a cAMP standard curve generated for each experiment. Data were analyzed using a 4‐parameter nonlinear logistic equation. Results are expressed as the geometric mean ± standard deviation or geometric mean ± standard error as noted.

[6] = target: T1, Human EP4; experiment: EP4 cAMP antagonist assay (HTRF), human EP4; type: cell-based; settings: HEK293 cells stably expressing human EP4; PGE2 at EC80; geometric mean ± SEM; read-out: cAMP Antagonism (hEP4) Human EP4 IC50
Description: as §2, §3

[7] = target: T4, human EP3 receptor (Homo sapiens, UniProt P43115); experiment: [3H]-PGE2 receptor binding assay, EP3 membranes; settings: HEK293 membranes, geometric mean ± SEM, read-out: hEP1-4 receptor binding EP3 Ki
T4 sequence (P43115 1-359 limits assumed): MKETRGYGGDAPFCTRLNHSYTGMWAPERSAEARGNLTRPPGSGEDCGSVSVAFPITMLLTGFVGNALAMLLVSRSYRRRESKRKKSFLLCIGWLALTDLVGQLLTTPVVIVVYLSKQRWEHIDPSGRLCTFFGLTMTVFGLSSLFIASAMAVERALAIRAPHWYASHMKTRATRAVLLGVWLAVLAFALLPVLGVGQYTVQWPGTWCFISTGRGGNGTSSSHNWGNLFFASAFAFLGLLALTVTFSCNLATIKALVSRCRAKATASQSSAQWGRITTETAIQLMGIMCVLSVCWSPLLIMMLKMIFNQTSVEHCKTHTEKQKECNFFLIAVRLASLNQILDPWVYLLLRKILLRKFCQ
Description: as §4

[8] = target: T1, Human EP4; experiment: [3H]-PGE2 receptor binding assay, EP4 membranes; parameters: expressed in transfected cells; membrane preparation; settings: HEK293 membranes, geometric mean ± SEM, read-out: hEP1-4 receptor binding EP4 Ki
Description: as §4

[9] = system: dogs with osteoarthritis; parameters: method as in Rausch‐Derra et al. 2016; settings: prospective placebo controlled study, ref Rausch‐Derra et al. 2016; cited from earlier work
[10] = target: T5, human EP2 receptor (Homo sapiens, UniProt P43116); experiment: [3H]-PGE2 receptor binding assay, EP2 membranes; settings: HEK293 membranes; [3H]-PGE2; geometric mean ± SEM; read-out: hEP1-4 receptor binding EP2 Ki
T5 construct: host or cells: HEK293, transient; membrane preparation
T5 sequence (P43116 whole entry): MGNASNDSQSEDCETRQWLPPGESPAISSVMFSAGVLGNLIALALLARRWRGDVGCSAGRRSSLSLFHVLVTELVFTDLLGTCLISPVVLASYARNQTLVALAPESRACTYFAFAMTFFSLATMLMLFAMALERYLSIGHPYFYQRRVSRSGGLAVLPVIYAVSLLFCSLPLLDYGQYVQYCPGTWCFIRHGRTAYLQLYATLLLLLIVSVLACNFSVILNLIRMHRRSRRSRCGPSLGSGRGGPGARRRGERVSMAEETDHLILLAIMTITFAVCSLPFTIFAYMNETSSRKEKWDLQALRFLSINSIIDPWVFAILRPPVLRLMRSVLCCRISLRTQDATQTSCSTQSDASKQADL
Description: as §4

[11] = 10 mg/kg oral once daily for seventeen days

O=C(O)Cc1ccccc1Nc1c(Cl)cccc1Cl [diclofenac, reference compound]
increases in paw inflammation (swelling) compared to vehicle [1]: significantly inhibited

CCCCC[C@H](O)/C=C/[C@H]1[C@H](O)CC(=O)[C@@H]1C/C=C\CCCC(=O)O [PGE2, Prostaglandin (PG) E2]
EC80 cAMP production ([2]; HEK 293 cells stably transfected with human EP4 cDNA, 20 min): 0.34 nM
EC80 cAMP production (Fig. 2A) ([2]; HEK‐293 cells stably transfected with human EP4 cDNA, 20 min at room temperature): 0.34 nM

CCCCC[C@H](O)/C=C/[C@H]1[C@H](O)CC(=O)[C@@H]1C/C=C\CCCC(=O)O [^3[H] PGE2]
Kd ([3]; read-out: ^3[H] PGE2 Binding/kd EP1, HEK 293 membranes, homologous competition (Fig. 3D)): 5.62 nM

C[C@]12C=CC(=O)C=C1CC[C@@H]1[C@@H]2[C@@H](O)C[C@@]2(C)[C@H]1CC[C@]2(O)C(=O)CO [prednisolone, Prednisolone]
reduction in summed scores (ankle histology) [4, 11]: 93%
reductions in all ankle scores (histology) [4, 11]: 87–99%
ankle thickness ([4]; 10 mg/kg oral once daily, data not shown): significant reduction
knee joint histopathology (representative photomicrograph) ([4]; Fig. 10 bottom panel, prednisolone 10 mg/kg, compound 3 dose not given): very minimal inflammation (S) and cartilage damage not visible at this magnification
ankle joint histopathology (representative photomicrograph) ([4]; Fig. 10 top panel, prednisolone 10 mg/kg, compound 3 dose not given): minimal inflammation (S) and minimal cartilage damage

CCc1nc2c(C)nc(C)cc2n1-c1ccc(CCNC(=O)NS(=O)(=O)c2ccc(C)cc2)cc1 [CJ‐023,423, N‐[({2‐[4‐(2‐ethyl‐4, 6‐dimethyl‐1H‐imidazo [4, 5–c]pyridin‐1‐yl)phenyl]ethyl}amino)carbonyl]‐4‐methylbenzenesulfonamide, reference compound]
IC50 [5]: 13.1 ± 1 nM
Ki ([3]; HEK293 membranes, [3H]-PGE2, geometric mean ± SEM, read-out: hEP1-4 receptor binding EP1 Ki): > 22900 nM
IC50 [6]: 12 nM and 11.7 nM
Ki [7]: > 19500 nM
Ki [8]: 449 ± 123 nM
efficacy for signs and symptoms of OA [9]: efficacious
Ki [10]: > 21600 nM
